In ChEMBL document CHEMBL1137773, “Novel lead structures for p38 MAP kinase via FieldScreen virtual screening” (J Med Chem, 2009):

Tests used:
[1] = Inhibition of p38 MAPK at 10 uM by ELISA
[2] = Inhibition of p38 MAPK by ELISA

Compound	inhibition [1] [%]	IC50 [2] [µM]
c1ccc(OCc2nn3c(-c4ccccc4)nnc3s2)cc1	39	
Cc1cc(-c2nnc3sc(COc4ccc(F)cc4)nn23)n(C)n1	22	
O=C(Nc1ccc(F)cc1)c1cccc(S(=O)(=O)Nc2ccccc2)c1	15	
Clc1ccccc1-c1nnc2sc(COc3ccccc3)nn12	76	0.79
COc1ccc(-c2nnc3sc(COc4ccc(F)cc4)nn23)cc1	31	
Brc1ccccc1-c1nnc2sc(COc3ccccc3)nn12	80	1.24
COc1ccccc1Cc1nnc2sc(COc3ccccc3)nn12	77	0.74
Cc1nnc2sc(COc3ccccc3)nn12	18	
c1ccc(CCc2nn3c(-c4ccncc4)nnc3s2)cc1	26	
CCOC(=O)C(C)Sc1nc2c(c(=O)n1-c1ccc(F)cc1)SCC2 (stereo unspecified)	23	
CC(C)(C)c1nnc2sc(COc3ccccc3)nn12	61	3.98
Oc1ccc2ccccc2c1C1NN=C(c2ccccc2)S1 (stereo unspecified)	21	
Clc1cccc(-c2nnc3sc(COc4ccccc4)nn23)c1	3	
CCC(Oc1ccccc1)c1nn2c(-c3ccoc3C)nnc2s1 (stereo unspecified)	31	
COc1ccc(OCc2nnc3sc(-c4ccccc4Cl)nn23)cc1	34	
COc1cccc(OCc2nn3c(-c4ccccc4)nnc3s2)c1	11	
Cc1sc2ncnc(SCC(=O)c3ccc(F)cc3)c2c1C	24	
Clc1ccc(-c2nnc3sc(CCc4ccccc4)nn23)c(Cl)c1	45	
C=CCNc1sc(C(=O)c2ccc(F)cc2)c(N)c1C#N	46	
CC1Cc2nc(SCC(N)=O)n(-c3ccc(F)cc3)c(=O)c2S1 (stereo unspecified)	4	
O=C(c1cn(Cc2ccccc2F)c2ccccc12)C1CC1	23	
Cc1ccccc1Cc1nnc2sc(COc3ccc(F)cc3)nn12	36	
CCn1c(SCc2ccccc2Cl)nc2ccccc2c1=O	28	
COc1ccccc1NC1CC(=O)N(c2ccc(Cl)cc2)C1=O (stereo unspecified)	20	
Cc1ccc(CNC(=O)CN(c2cccc(Cl)c2)S(C)(=O)=O)cc1	1	
CC(C)(C)c1ccc(OCc2nn3c(Cc4ccccc4)nnc3s2)cc1	12	
Cn1nc(CC(=O)Nc2ccc(Br)cc2)c2ccccc2c1=O	15	

Compound	inhibition [1] [%]	IC50 [2] [µM]
COc1ccc(Cc2nn3c(-c4ccccc4Cl)nnc3s2)cc1	83	0.44
Cc1occc1-c1nnc2sc(COc3ccc(F)cc3)nn12	21	
Cc1occc1-c1nnc2sc(C(C)Oc3ccccc3)nn12 (stereo unspecified)	30	
CCc1ccc(OCC(=O)Nc2cccc3nc(C)ccc23)cc1	4	
Cc1ccccc1Cc1nnc2sc(COc3ccccc3)nn12	33	
COc1ccc(OCc2nn3c(-c4ccc(Cl)cc4Cl)nnc3s2)cc1	31	
COc1ccccc1Cc1nnc2sc(COc3ccc(F)cc3)nn12	79	0.65
Cc1onc(-c2c(Cl)cccc2Cl)c1C(=O)N1CCCCC1C (stereo unspecified)	14	
Fc1ccc(-c2nnc3sc(CCc4ccccc4)nn23)cc1	32	
CCc1cc2c(SCC(=O)Nc3ccc(Br)cc3)ncnc2s1	14	
Clc1ccccc1-c1nnc2sc(CCc3ccccc3)nn12	72	2.55
Cc1cccc(CC(=O)N(c2ccc(Br)cc2)C2C=CS(=O)(=O)C2)c1 (stereo unspecified)	2	
Fc1ccc(OCc2nn3c(Cc4ccccc4)nnc3s2)cc1	32	
Cc1nn(Cc2ccccc2)c2c1C(c1ccc(Br)cc1)C(C#N)=C(N)O2 (stereo unspecified)	40	
Cc1cccc(OCc2nn3c(-c4ccccc4Cl)nnc3s2)c1	76	1.98
CC(C)(Oc1ccccc1)c1nn2c(-c3ccoc3)nnc2s1	24	
CC(C)Oc1ccc(OCCSc2nc(=O)c3ccccc3[nH]2)cc1	23	
CCC(O)Cc1nc(N)c(C#N)c(-c2ccccc2OC)c1C (stereo unspecified)	20	
COc1ccc(OCc2nn3c(-c4ccccc4Cl)nnc3s2)cc1	64	3.88
NC(=O)C(c1ccc(Cl)cc1)c1ccc(C(=O)c2ccccc2)cc1 (stereo unspecified)	26	
FC(F)(F)c1nnc2sc(COc3ccccc3)nn12	16	
Cc1ccccc1OCc1nn2c(-c3ccccc3Cl)nnc2s1	65	3.51
Fc1ccccc1-c1nnc2sc(COc3ccccc3)nn12	73	3.08
CCSc1ccccc1C(=O)N1CCc2ccccc21	4	
Cc1ccc(NC(=O)Nc2c(Cl)cccc2Cl)c2c1CC(C)(C)O2	66	
CC(C)(C)c1nnc2sc(COc3ccc(F)cc3)nn12	53	4.71
Cc1sc(NC(=O)c2ccc(Cl)cc2)c(C(=O)c2ccccc2)c1C	31	
